# Measured values from patent US20260240812A1, “TREATMENT FOR AMYOTROPHIC LATERAL SCLEROSIS (ALS)” (Zydus Lifesciences Limited, priority 2023, published 2026).
# Several values for one entry are separate records, joined by “and”; a condition that tells them apart may be missing. Equal entries are not always repeated.
# System: patients with Amyotrophic Lateral Sclerosis (ALS)
# Assay: Phase 2 placebo controlled, randomized, double blind 12-week study, ALSFRS-R total score
# Format: in vivo, human
# Excerpt: Efficacy, Safety, Tolerability, Pharmacokinetics and Pharmacodynamics of Formula (I) in Patients with Amyotrophic Lateral Sclerosis • Protocol Title: A phase 2, proof-of-concept, placebo controlled, randomized, double blind study of compound of formula (I) to evaluate the efficacy, safety, tolerability, pharmacokinetics and pharmacodynamics in patients with Amyotrophic Lateral Sclerosis (ALS). • Study design: A phase 2, proof-of-concept, placebo controlled, randomized, double blind, 12-week study of compound of formula (I) to evaluate the efficacy, safety, pharmacokinetics, and pharmacodynamics in patients with Amyotrophic Lateral Sclerosis (ALS). • Study population: Male or female patients aged between 18-80 years (both inclusive at screening) with diagnosis of Amyotrophic Lateral Sclerosis who meet eligibility criteria • Number of Patients: Approximately 24 patients (06 patients in each arm) are enrolled. • Duration of Patient Participation: 114±5 Days (Including 28 days of screening)
# • To measure the efficacy of the treatment using the slope of progression with the revised Amyotrophic Lateral Sclerosis Functional Rating Scale (ALSFRS-R)
# • Change from baseline in the ALSFRS-R total score [Time Frame: From baseline to Week 12] […]
structure (smiles),measurement,setting,value
CN1CCC[C@]1(C)/C=C/S(=O)(=O)NC(=O)Nc1c2c(cc3c1CCC3)CCC2 [formula (I)],Change from baseline in the ALSFRS-R total score,"baseline to Week 12, one line per patient, arm not given",−8 points and −1 points and 4 points and 0 points and 1 points and −3 points
same,"ALSFRS-R score, result in words","over 12 weeks, ALS patients",stable and improved ALSFRS-R score in some patients
